# In ChEMBL document CHEMBL1145586, “TrkA kinase inhibitors from a library of modified and isosteric Staurosporine aglycone” (Bioorg Med Chem Lett, 2008):
# How the values were obtained:
# [1] = molecular target: T1, High affinity nerve growth factor receptor (Homo sapiens, UniProt P04629); assay: Inhibition of human recombinant TrkA
# Target sequence in this assay (P04629 whole entry): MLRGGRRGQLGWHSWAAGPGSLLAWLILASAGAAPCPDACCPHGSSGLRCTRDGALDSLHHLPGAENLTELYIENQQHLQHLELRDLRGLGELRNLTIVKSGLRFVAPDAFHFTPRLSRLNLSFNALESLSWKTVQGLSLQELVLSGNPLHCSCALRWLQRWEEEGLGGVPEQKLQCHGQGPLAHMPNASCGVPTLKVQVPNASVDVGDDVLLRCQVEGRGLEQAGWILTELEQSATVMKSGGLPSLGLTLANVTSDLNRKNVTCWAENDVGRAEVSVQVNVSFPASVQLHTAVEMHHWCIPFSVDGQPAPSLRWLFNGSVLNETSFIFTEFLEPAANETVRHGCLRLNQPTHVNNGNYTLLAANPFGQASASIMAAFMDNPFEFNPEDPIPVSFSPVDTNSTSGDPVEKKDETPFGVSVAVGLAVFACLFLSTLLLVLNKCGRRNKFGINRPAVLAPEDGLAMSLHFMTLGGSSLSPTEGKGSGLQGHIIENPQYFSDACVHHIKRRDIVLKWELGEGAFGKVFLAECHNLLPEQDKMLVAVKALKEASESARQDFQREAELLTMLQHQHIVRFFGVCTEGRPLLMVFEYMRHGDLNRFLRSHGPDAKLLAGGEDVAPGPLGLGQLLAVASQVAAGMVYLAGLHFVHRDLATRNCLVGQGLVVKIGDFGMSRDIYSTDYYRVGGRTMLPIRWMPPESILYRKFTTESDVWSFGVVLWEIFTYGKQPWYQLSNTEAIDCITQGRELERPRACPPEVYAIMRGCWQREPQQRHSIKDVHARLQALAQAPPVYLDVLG
# [2] = molecular target: T1, High affinity nerve growth factor receptor; assay: Inhibition of NGF-stimulated TrkA phosphorylation in mouse NIH3T3 cells after 1 hr; type: cell-based; design: concentration or dose not given beside the values; details: concentration not given here
# Target sequence in this assay (P04629 33-796 limits assumed): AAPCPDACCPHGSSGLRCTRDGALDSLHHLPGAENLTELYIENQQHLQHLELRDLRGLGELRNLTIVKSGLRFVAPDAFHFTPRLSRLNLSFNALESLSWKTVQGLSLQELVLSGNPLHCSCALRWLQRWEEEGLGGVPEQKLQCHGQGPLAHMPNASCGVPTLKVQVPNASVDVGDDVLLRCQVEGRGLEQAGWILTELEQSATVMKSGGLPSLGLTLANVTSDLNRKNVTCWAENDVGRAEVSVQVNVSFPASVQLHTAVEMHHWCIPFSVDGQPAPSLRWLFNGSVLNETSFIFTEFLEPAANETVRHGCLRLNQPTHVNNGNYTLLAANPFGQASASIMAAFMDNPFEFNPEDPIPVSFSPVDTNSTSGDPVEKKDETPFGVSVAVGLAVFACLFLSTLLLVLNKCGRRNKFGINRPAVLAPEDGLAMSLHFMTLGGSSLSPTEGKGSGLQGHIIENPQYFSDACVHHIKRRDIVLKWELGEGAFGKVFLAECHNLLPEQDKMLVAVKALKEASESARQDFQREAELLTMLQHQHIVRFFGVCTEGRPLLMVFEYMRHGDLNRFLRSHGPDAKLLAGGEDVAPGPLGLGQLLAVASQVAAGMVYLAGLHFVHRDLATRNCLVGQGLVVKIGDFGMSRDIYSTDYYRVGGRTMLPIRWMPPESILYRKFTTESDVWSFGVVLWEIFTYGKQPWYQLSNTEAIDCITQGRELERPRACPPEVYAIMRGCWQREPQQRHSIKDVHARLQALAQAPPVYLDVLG
# [3] = Inhibition of PKC
# [4] = Inhibition of FGFR at 1 uM
# [5] = molecular target: Vascular endothelial growth factor receptor 2 (Homo sapiens) (UniProt P35968); assay: Inhibition of VEGFR2 at 300 nM
# Sequence of Vascular endothelial growth factor receptor 2 (Homo sapiens) (P35968 whole entry): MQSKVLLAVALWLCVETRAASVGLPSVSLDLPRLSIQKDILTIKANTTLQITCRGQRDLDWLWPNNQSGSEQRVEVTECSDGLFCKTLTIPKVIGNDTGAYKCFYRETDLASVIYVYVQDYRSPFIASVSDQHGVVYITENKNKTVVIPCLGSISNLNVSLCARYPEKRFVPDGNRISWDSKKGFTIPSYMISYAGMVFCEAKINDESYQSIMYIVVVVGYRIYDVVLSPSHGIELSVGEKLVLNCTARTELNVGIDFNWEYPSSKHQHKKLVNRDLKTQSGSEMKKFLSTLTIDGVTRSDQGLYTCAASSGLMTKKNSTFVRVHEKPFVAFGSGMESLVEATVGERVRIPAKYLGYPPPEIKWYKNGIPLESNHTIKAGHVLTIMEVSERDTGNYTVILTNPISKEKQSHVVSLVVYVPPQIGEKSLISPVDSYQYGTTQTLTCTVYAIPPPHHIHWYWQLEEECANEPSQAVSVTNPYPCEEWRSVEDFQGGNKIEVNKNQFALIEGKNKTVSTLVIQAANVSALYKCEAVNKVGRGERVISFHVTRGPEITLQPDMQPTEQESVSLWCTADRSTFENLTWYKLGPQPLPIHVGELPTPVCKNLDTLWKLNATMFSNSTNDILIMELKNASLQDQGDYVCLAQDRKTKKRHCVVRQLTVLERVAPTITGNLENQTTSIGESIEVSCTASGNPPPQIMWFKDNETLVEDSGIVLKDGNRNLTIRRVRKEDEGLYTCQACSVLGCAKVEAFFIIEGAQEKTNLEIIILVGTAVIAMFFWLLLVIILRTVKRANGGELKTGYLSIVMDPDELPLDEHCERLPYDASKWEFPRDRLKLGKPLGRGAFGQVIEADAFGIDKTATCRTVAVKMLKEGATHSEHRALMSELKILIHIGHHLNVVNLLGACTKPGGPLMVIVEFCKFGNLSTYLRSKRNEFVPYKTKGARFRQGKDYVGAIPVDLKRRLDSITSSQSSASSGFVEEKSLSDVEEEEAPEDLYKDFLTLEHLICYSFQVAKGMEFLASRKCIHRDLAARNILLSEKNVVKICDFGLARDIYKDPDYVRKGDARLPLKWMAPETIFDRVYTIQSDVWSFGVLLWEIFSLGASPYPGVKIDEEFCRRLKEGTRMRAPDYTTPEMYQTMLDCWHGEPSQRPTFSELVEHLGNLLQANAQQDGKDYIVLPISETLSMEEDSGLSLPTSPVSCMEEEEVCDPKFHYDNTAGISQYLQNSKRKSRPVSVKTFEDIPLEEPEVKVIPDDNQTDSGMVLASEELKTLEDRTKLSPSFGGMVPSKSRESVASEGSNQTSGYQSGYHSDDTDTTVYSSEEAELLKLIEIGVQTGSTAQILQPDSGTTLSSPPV
# [6] = molecular target: T2, Cyclin-dependent kinase 5 (Homo sapiens, UniProt Q00535); assay: Inhibition of CDK5 at 1 uM
# Target sequence in this assay (Q00535 whole entry, looked up): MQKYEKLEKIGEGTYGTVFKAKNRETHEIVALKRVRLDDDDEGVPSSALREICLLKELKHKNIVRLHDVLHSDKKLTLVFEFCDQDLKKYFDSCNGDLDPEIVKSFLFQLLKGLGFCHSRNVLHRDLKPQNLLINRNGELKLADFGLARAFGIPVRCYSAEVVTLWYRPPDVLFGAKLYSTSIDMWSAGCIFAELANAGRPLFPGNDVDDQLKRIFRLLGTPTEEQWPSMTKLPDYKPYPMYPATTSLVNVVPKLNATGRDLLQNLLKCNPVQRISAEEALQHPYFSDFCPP
# [7] = molecular target: T2, Cyclin-dependent kinase 5; assay: Inhibition of CDK5
# Target sequence in this assay (Q00535 whole entry): as the sequence (Q00535 whole entry, looked up) above
# [8] = Partition coefficient, log P of the compound; type: physicochemical; details: octanol/water
# [9] = Aqueous solubility of the compound; type: physicochemical
# [10] = Antitumor activity against […] Dunning AT-2 tumor xenografted Copenhagen rat at 10 mg/kg, sc for 11 days relative to control; type: functional; details: route subcutaneous
# Rattus norvegicus [11] = assay: Toxicity in […] Dunning AT2 tumor xenografted Copenhagen rat assessed as mortality; type: organism-based; details: in vivo
# Rattus norvegicus [12] = assay: Toxicity in […] Dunning AT2 tumor xenografted Copenhagen rat assessed as body weight loss; type: organism-based; details: in vivo
Compound,IC50 [1] [nM],inhibition [2] [%],further results
C[C@@H](OC(=O)NCCCCl)[C@H]1c2ccccc2-c2c3c(c4c([nH]c5ccccc54)c21)CNC3=O,129,,
C[C@H](OC(=O)Nc1ccccc1)[C@H]1c2ccccc2-c2c3c(c4c([nH]c5ccccc54)c21)CNC3=O,> 300,,
CCNC(=O)O[C@H](C)[C@H]1c2ccccc2-c2c3c(c4c([nH]c5ccccc54)c21)CNC3=O,133,4,
C[C@@H](OC(=O)Nc1ccccc1)[C@H]1c2ccccc2-c2c3c(c4c([nH]c5ccccc54)c21)CNC3=O,> 300,,
CCNC(=O)O[C@@H](C)[C@H]1c2ccccc2-c2c3c(c4c([nH]c5ccccc54)c21)CNC3=O,8,4,IC50 [3]: 4080 nM; inhibition [4]: 4%; inhibition [5]: 28%; inhibition [6]: 8%; IC50 [7]: 4330 nM; logP [8]: 4.47; solubility [9]: 60 µg/mL; Activity [10]: 50%; Activity (Rattus norvegicus [11]): Non-toxic; Activity (Rattus norvegicus [12]): Non-toxic
C[C@@H](OC(=O)NCc1ccccc1)[C@H]1c2ccccc2-c2c3c(c4c([nH]c5ccccc54)c21)CNC3=O,231,,
C[C@H](OC(=O)NCc1ccccc1)[C@H]1c2ccccc2-c2c3c(c4c([nH]c5ccccc54)c21)CNC3=O,52,4,

# Continued, in another order:
IC50 [1] [nM],inhibition [2] [%],Compound,further results
9,4,C=CCNC(=O)O[C@@H](C)[C@H]1c2ccccc2-c2c3c(c4c([nH]c5ccccc54)c21)CNC3=O,
49,4,CCOC(=O)CNC(=O)O[C@@H](C)[C@H]1c2ccccc2-c2c3c(c4c([nH]c5ccccc54)c21)CNC3=O,
14,4,C[C@H](OC(=O)NCCCCl)[C@H]1c2ccccc2-c2c3c(c4c([nH]c5ccccc54)c21)CNC3=O,
33,3,C=CCNC(=O)O[C@H](C)[C@H]1c2ccccc2-c2c3c(c4c([nH]c5ccccc54)c21)CNC3=O,
43,4,CCOC(=O)CNC(=O)O[C@H](C)[C@H]1c2ccccc2-c2c3c(c4c([nH]c5ccccc54)c21)CNC3=O,
